The text below walks through data of paper PMC5371824, “Phosphatidylinositol (4,5)-bisphosphate dynamically regulates the K2P background K^+ channel TASK-2” (Scientific Reports, 2017).

Values joined by “and” are separate entries in the source; they are usually repeats but may differ in a detail not shown here. Identical values can stand only once. Like-named read-outs stand apart in the source and are kept apart here.

Series [1] concerns the target T1, TASK-2 (Mus musculus, UniProt F6V9U5).
T1 construct: expressed in transfected cells; host or cells: HEK-293
T1 sequence (F6V9U5 1-502): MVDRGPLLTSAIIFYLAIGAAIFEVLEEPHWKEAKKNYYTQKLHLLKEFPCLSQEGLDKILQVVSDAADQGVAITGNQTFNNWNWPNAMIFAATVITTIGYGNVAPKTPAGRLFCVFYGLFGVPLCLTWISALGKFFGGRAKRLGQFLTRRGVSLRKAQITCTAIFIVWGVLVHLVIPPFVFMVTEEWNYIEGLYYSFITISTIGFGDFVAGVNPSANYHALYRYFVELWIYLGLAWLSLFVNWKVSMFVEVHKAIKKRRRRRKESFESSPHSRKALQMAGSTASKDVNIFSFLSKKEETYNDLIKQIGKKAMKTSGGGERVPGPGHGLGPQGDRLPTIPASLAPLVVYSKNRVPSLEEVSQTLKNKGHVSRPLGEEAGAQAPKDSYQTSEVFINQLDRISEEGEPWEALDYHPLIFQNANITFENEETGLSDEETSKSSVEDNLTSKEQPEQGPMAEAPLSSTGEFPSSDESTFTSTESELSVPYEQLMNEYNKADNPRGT
The series can be described thus: Excised inside-out patch recording from HEK-293 cells over-expressing TASK-2. The class given is biochemical. As to conditions: for IC50: WT TASK-2, inside-out patch, mean ± SEM, read-out: IC50 for neomycin inhibition of TASK-2 current.

Another series deals with KCNQ1/KCNE1. Details: method as in PMID 21576493. The note with it: read-out: EC50 for PI(4,5)P2 effect; cited from earlier work.
In series [2] the target is T1, TASK-2. Put plainly: Whole-cell patch-clamp of HEK-293 cells expressing TASK-2. It is filed as cell-based. The note with it: whole-cell, 1 mM intracellular ATP, 0 mV. As to the method: (§1) Mus musculus TASK-2 (GenBank accession No. AF319542) plasmid was that obtained from mouse kidney. The cDNAs was subcloned into the pCR3.1 vector. Mutations were made by site-directed mutagenesis into the pCR3.1 vector as previously described[69] and confirmed by sequencing. HEK-293 cells were cultured in Dulbecco’s modified Eagle’s medium (DMEM) and F12 Ham’s medium at a 1:1 ratio and supplemented with 10% fetal calf serum at 37 °C in 5% CO2. For electrophysiological experiments, transient transfections were performed by electroporation, using CD8 cotransfection to identify effectively transfected cells. […] Experiments were performed 4–8 h after electroporation. In experiments with the voltage-sensitive phosphatase TASK-2 or its mutants were co-electroporated with a pCR3.1-DrVSP-IRES-CD8 vector.
Transiently transfected HEK-293 cells in 35 mm Petri dishes were transferred to the stage of an inverted microscope for study. There they were continuously superfused with a bathing solution containing (in mM): 67.5 Na2SO4, 4 KCl, 1 K gluconate, 2 CaCl2, 1 MgCl2, 105 sucrose, and 10 Hepes/Tris (pH 7.5) (standard solution). A high K^+ solution was obtained by equimolar replacement of Na^+ by K^+. The pipette solution contained (mM) 8 KCl, 132 potassium gluconate, 1 MgCl2, 10 EGTA, 1 Na3ATP, 0.1 GTP, 10 HEPES/Tris, pH 7.4. Standard whole-cell, patch-clamp recordings were performed as described elsewhere. All our whole-cell experiments keep both intra- and extracellular chloride at 10 mM and although currents were measured at several potentials, data mostly reported are those obtained at 0 mV. Potentials were corrected for liquid junction shifts. Acquisition and analysis was done with Clampfit 9.0 (Axon Instruments, Foster City, CA, USA). Further data analysis was done using the curve fitting features of SigmaPlot v. 12 (Systat Software Inc., San Jose, CA, USA).

The next series relates to TASK-2-R438C. The series can be described thus: Excised inside-out patch recording, TASK-2-R438C mutant. Also noted: key to Neomycin inhibition: ✓ under Neomycin inhibition indicates a significantly lower IC50 for inhibition by neomycin compared to control; — in all cases stands for no significant effect. It is filed as biochemical, Mus musculus. As to the method:
as §1
Recordings in the inside-out isolated patch configuration were performed in the gap-free mode at −60 mV. The inside aspect of the patch was bathed with a solution containing in mM: 10 KCl, 10 Glucose, 1 MgCl2, 10 EGTA, 1 Na3ATP, 0.1 GTP, 6.8 g/100 ml Sucrose, 10 Hepes/Tris, pH 7.4. The pipette contained in mM: 140 KCl, 10 Glucose, 6.8 g/100 ml Sucrose, 10 Hepes/Tris pH 7.4. For isolated patches, borosilicate capillaries (Harvard Apparatus GC150F-10 1.5 ODx0.86 ID) were fire polished to 4–5 MΩ and covered in beeswax. Acquisition was at 10 kHz with filter at 3 kHz (4-pole Bessel) and analysis was done with Clampfit 9.0 (Axon Instruments, Foster City, CA, USA). Traces shown are prints from crude Clampfit screen shots and quantification was done using the average currents were calculated at intervals using Clampfit after baseline adjustment.
Fig. S7. Concentration ependence for the inhibition of TASK-2 mutant R438C by
intracellular neomycin. Recording were obtained from excised inside-out patches of
membrane taken from a HEK-293 cells over-expressing TASK-2-R438C. The patches were
held at -60 mV in the presence of 1 mM intracellular ATP. Neomycin was increased
stepwise from 5 to 500 µM in the solution bathing the intracellular aspect of the membrane. […]

In another series the test system is Kir4.1/Kir5.1. Details: method as in PMID 18690035. As to conditions: read-out: neomycin IC50; cited from earlier work.

As to `CCCCCCCC(=O)OC[C@H](COP(=O)(O)O[C@@H]1[C@H](O)[C@H](O)[C@@H](OP(=O)(O)O)[C@H](OP(=O)(O)O)[C@H]1O)OC(=O)CCCCCCC` [PI(4,5)P2, phosphatidylinositol 4,5-bisphosphate diC8], the “Effect of readmitted ATP relative to the maximal effect elicited by the PIP” value at TASK-2 [1] (1 mM ATP added after PIP, inside-out patches, Fig. S3) was found to be 1.7 fold. Besides, the “Stimulating effect on TASK-2-mediated currents after run-down” value on TASK-2 [1] (diC8 PIP added to inside-out excised patches, absence of ATP) is recorded as “Robust, but intermediate effects”. Further, at TASK-2 [1] (diC8 PIP, inside-out patch, -60 mV, absence of ATP, from fits, means ± SEM), the “Maximal fold effect on TASK-2 current (normalised to current in absence of PIP)” value came out at 3.7 ± 0.2 fold. The concentration for a half-maximal effect (EC50) was 34.9 µM and 35 µM at TASK-2 [1] (diC8 PIP, inside-out patch, -60 mV, absence of ATP, from fits, means ± SEM, read-out: K0.5 (EC50) for activation of TASK-2 current); 5 µM with KCNQ1/KCNE1.

Take neomycin: the results for the “Inhibition of TASK-2 activity by intracellular neomycin” value at TASK-2 [2] (100 μM in pipette) and at TASK-2 [2] (200 μM in pipette) were “intermediate effect” and “near maximum effect”, respectively. For the same compound, the “Inhibition of TASK-2 activity in excised inside-out patches” value at TASK-2 [1] (300 μM, -60 mV, 1 mM intracellular ATP) was “strongly inhibited”. Further, the half-maximal inhibitory concentration (IC50) on TASK-2 [1] (-60 mV, 1 mM intracellular ATP, neomycin 5 to 500 μM intracellular, n = 4) is ~20 µM; on TASK-2 [1] (graded intracellular neomycin, four experiments, unit inferred) it was 23.4 ± 2.7 µM; in the series on TASK-2-R438C (inside-out patch, -60 mV, 1 mM intracellular ATP, neomycin 5 to 500 µM, mean ± SEM, n=4, read-out: IC50 for neomycin inhibition of TASK-2-R438C current), 8.9 ± 1.5 µM; in the series with Kir4.1/Kir5.1, 110 µM. Besides, the “Inhibition of TASK-2 activity by polycation PI scavengers” value on TASK-2 [1] (in the presence of intracellular ATP) is “inhibit TASK-2 activity”. For the same compound, in the series with TASK-2-R438C (mutation R438C, IC50 compared to WT TASK-2), the Neomycin inhibition result is “✓”.
